Data reported in patent US20040127492A1 (Pharmacia Corporation, priority 2002, published 2004).
Read-outs that look alike come from different tables or passages of the source.

Experiments:
MK-3 = MK-3 (Homo sapiens, UniProt Q16644); test: MK-3 inhibition IC50 (similar method to MK-2, with appropriate modifications); assay type: biochemical; settings: read-out: MK-3 Avg. IC50
Protocol: In practice, the selectivity of a cyclic pyrazole MK-2 inhibitor varies depending upon the condition under which the test is performed and on the inhibitors being tested. However, for the purposes of this specification, the selectivity of a cyclic pyrazole MK-2 inhibitor inhibitor can be measured as a ratio of the in vitro or in vivo IC50 value for inhibition of MK-3, divided by the IC50 value for inhibition of MK-2 (IC50 MK-3/IC50 MK-2). […] The MK-2 or MK-3 inhibiting activity of any of the compounds described herein can be determined by any one of several methods that are well known to those having skill in the art of enzyme activity testing. […] A similar method, with appropriate modifications, Can be used to measure MK-3 inhibitory activity. In addition, the efficacy of one of the present MK-2 inhibiting compounds in therapeutic applications can be determined by testing for inhibition of TNFα production in cell culture and in animal model assays.

MAPKAPK2 (MK-2) = MAPKAPK2 (MK-2) (Homo sapiens, UniProt P49137); test: Determination of MK-2 IC50 (HSP-peptide phosphorylation, anion exchange resin capture assay); assay type: biochemical
MAPKAPK2 (MK-2), sequence (P49137 whole entry, species assumed): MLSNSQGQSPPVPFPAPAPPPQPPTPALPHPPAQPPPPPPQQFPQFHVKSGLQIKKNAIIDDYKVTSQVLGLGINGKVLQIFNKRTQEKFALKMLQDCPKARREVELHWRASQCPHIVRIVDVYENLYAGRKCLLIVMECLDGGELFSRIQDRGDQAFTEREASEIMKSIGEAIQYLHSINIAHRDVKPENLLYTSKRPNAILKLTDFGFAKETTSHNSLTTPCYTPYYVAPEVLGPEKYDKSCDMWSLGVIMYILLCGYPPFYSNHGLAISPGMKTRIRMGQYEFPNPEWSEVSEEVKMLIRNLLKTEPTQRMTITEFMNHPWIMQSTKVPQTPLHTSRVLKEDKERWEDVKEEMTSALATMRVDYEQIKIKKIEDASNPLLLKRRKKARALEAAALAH
Protocol: Determination of MK-2 IC50:
Recombinant MAPKAPK2 was phosphorylated at a concentration of 42-78 μM by incubation with 0.23 μM of active p38α in 50 mM HEPES, 0.1 mM EDTA, 10 mM magnesium acetate, and 0.25 mM ATP, pH 7.5 for one hour at 30° C.
The phosphorylation of HSP-peptide ([…]) by MAPKAPK2 was measured using an anion exchange resin capture assay method. The reaction was carried out in 50 mM β-glycerolphosphate, 0.04% BSA, 10 mM magnesium acetate, 2% DMSO and 0.8 mM dithiotheritol, pH 7.5 in the presence of the HSP-peptide with 0.2 μCi [γ^33P]ATP and 0.03 mM ATP. The reaction was initiated by the addition of 15 nM MAPKAPK2 and was allowed to incubate at 30° C. for 30 min. The reaction was terminated and [γ^33P]ATP was removed from solution by the addition of 150 μl of AG 1×8 ion exchange resin in 900 mM sodium formate pH 3.0. A 50 μl aliquot of head volume was removed from the quenched reaction mixture and added to a 96-well plate, 150 μl of Microscint-40 (Packard) was added and the amount of phosphorylated-peptide was determined. Allow the Microscint to sit in the plates for 60 minutes prior to counting.
Compounds are evaluated as potential inhibitors of the MK-2 kinase by measuring their effects on MK-2 phosphorylation of the peptide substrate. Compounds may be screened initially at two concentrations prior to determination of IC50 values. Screening results are expressed as percent inhibition at the concentrations of compound tested. For IC50 value determinations, Compounds are tested at six concentrations in ten-fold serial dilutions with each concentration tested in triplicate. Results are expressed as IC50 values in micromolar. The assay is performed at a final concentration of 2% DMSO.

[1] = Table 2, pyrazolylpyrazole MK-2 inhibitors
[2] = Table 2, pyrazolylpyrazole MK-2 inhibitors, read-out: MK-2 Avg. IC50
[3] = Table 1, phenoxypyrazole MK-2 inhibitors
[4] = Table 1, phenoxypyrazole MK-2 inhibitors, read-out: MK-2 Avg, IC50
[5] = Table 5, other cyclic pyrazole MK-2 inhibiting compounds
[6] = Table 5, other cyclic pyrazole MK-2 inhibiting compounds, read-out: MK-2 Avg. IC50

MK-3, sequence (Q16644 whole entry, species assumed): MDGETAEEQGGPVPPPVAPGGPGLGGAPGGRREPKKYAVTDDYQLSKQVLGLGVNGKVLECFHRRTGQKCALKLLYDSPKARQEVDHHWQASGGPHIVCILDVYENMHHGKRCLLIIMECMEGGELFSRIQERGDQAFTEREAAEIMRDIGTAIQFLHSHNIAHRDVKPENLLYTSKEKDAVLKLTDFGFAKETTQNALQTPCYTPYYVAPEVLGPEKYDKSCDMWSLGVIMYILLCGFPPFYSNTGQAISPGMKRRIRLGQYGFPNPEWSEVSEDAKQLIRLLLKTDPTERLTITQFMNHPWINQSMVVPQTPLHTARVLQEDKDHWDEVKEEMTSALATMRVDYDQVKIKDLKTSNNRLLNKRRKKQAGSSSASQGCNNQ

With `O=C(O)c1c2c(nn1CCCNCCc1cccs1)-c1cn[nH]c1CC2` [Example 7] the IC50 (MK-3; [1]) was 55.2 µM and the IC50 (MAPKAPK2 (MK-2); [2]) was 3.66 µM.
For `O=C1NCCn2nc3c(c21)CCc1cc(O)c(-c2cccc([N+](=O)[O-])c2)cc1-3` [Example 7], the IC50 (MK-3; [3]) was greater than 200 µM and the IC50 (MAPKAPK2 (MK-2); [4]) was 3 µM.
`O=C1NCCn2nc3c(c21)CCc1cnc(/C=C/c2ccc(F)c(F)c2)cc1-3` [Example 7] showed an IC50 (MK-3; [5]) greater than 20 µM and an IC50 (MAPKAPK2 (MK-2); [6]) of 0.623 µM.
`N#Cc1cccc(-c2cc3c(cn2)CCc2c-3nn(CCCN)c2C(=O)O)c1` [Example 8] showed an IC50 (MK-3) of 0.226 µM and an IC50 (MAPKAPK2 (MK-2); read-out: MK-2 Avg. IC50) of 0.0302 µM.
In the case of `NCCCn1nc2c(c1C(=O)O)CCc1cc(O)c(Br)cc1-2` [Example 8], the IC50 (MK-3; [3]) is reported as greater than 200 µM and the IC50 (MAPKAPK2 (MK-2); [4]) is reported as 3.75 µM.
With `O=C(O)c1c2c(nn1CCCNCCc1ccsc1)-c1cn[nH]c1CC2` [Example 8] the IC50 (MK-3; [1]) was 48.5 µM and the IC50 (MAPKAPK2 (MK-2); [2]) was 7.84 µM.
Work on `O=C1NCCn2nc3c(c21)CCc1cnc(/C=C/c2ccc(F)cc2)cc1-3` [Example 8] yielded an IC50 (MK-3; [5]) greater than 20 µM and an IC50 (MAPKAPK2 (MK-2); [6]) of 0.749 µM.
Molecule `CCOC(=O)c1c2c(nn1CCCNCCc1ccc(Br)cc1)-c1cn[nH]c1CC2` [Example 9] has an IC50 (MK-3; [1]) of 68.1 µM and an IC50 (MAPKAPK2 (MK-2); [2]) of 8.54 µM.
For `NCCCn1nc2c(c1C(=O)O)CCc1cc(O)c(-c3ccc([N+](=O)[O-])cc3)cc1-2` [Example 9], the IC50 (MK-3; [3]) was 104 µM and the IC50 (MAPKAPK2 (MK-2); [4]) was 4.91 µM.
Molecule `O=C1NC(CO)Cn2nc3c(c21)CCc1cnc(-c2cnc4ccccc4c2)cc1-3` (stereo not shown) [Example 9] has an IC50 (MK-3) of 5.68 µM and an IC50 (MAPKAPK2 (MK-2); read-out: MK-2 Avg. IC50) of 0.0313 µM.
Work on `O=C1NCCn2nc3c(c21)CCc1cnc(/C=C/c2ccc(C(F)(F)F)cc2)cc1-3` [Example 9] yielded an IC50 (MK-3; [5]) greater than 20 µM and an IC50 (MAPKAPK2 (MK-2); [6]) of 2.26 µM.
`COc1ccc(-c2cc3c(cn2)CCc2c-3nn(CCCN)c2C(=O)O)cc1` [Example 10] showed an IC50 (MK-3) of 0.995 µM and an IC50 (MAPKAPK2 (MK-2); read-out: MK-2 Avg. IC50) of 0.0371 µM.
With `N#Cc1cccc(-c2cc3c(cc2O)CCc2c-3nn(CCCN)c2C(=O)O)c1` [Example 10] the IC50 (MK-3; [3]) was 168 µM and the IC50 (MAPKAPK2 (MK-2); [4]) was 5.35 µM.
Molecule `NCCCCn1nc2c(c1C(=O)O)CCc1[nH]ncc1-2` [Example 10] has an IC50 (MK-3; [1]) of no less than 200 µM and an IC50 (MAPKAPK2 (MK-2); [2]) of 10.1 µM.
`O=C1NCCn2nc3c(c21)CCc1cnc(/C=C/c2cccc(Cl)c2)cc1-3` [Example 10] gave an IC50 (MK-3; [5]) greater than 20 µM and an IC50 (MAPKAPK2 (MK-2); [6]) of 2.92 µM.
`CS(=O)(=O)c1cccc(-c2cc3c(cn2)CCc2c-3nn(CCCN)c2C(=O)O)c1` [Example 11] was tested, and the IC50 (MK-3) was 0.453 µM and the IC50 (MAPKAPK2 (MK-2); read-out: MK-2 Avg. IC50) was 0.0391 µM.
With `CSc1n[nH]c2c1-c1nn3c(c1CC2)C(=O)NCCC3` [Example 11] the IC50 (MK-3; [1]) was no less than 200 µM and the IC50 (MAPKAPK2 (MK-2); [2]) was 10.5 µM.
`NCCCn1nc2c(c1C(=O)O)CCc1cc(O)c(-c3cccc(C(F)(F)F)c3)cc1-2` [Example 11] showed an IC50 (MK-3; [3]) of 71.7 µM and an IC50 (MAPKAPK2 (MK-2); [4]) of 7.53 µM.
Molecule `O=C1NCCn2nc3c(c21)CCc1cnc(/C=C/c2ccccc2F)cc1-3` [Example 11] has an IC50 (MK-3; [5]) greater than 200 µM and an IC50 (MAPKAPK2 (MK-2); [6]) of 4.46 µM.
`C=CCSc1n[nH]c2c1-c1nn3c(c1CC2)C(=O)NCCC3` [Example 12] showed an IC50 (MK-3; [1]) of 55.6 µM and an IC50 (MAPKAPK2 (MK-2); [2]) of 10.8 µM.
Work on `COc1ccc(/C=C/c2cc3c(cn2)CCc2c-3nn3c2C(=O)NCC3)cc1` [Example 12] yielded an IC50 (MK-3; [5]) greater than 200 µM and an IC50 (MAPKAPK2 (MK-2); [6]) of 4.76 µM.
`NCCCn1nc2c(c1C(=O)O)CCc1cc(O)c(CCC(F)(F)F)cc1-2` [Example 12] was tested, and the IC50 (MK-3; [3]) was 149 µM and the IC50 (MAPKAPK2 (MK-2); [4]) was 8.11 µM.
`NCCCn1nc2c(c1C(=O)O)CCc1cnc(-c3cccc(C(F)(F)F)c3)cc1-2` [Example 12] was tested, and the IC50 (MK-3) was 0.29 µM and the IC50 (MAPKAPK2 (MK-2); read-out: MK-2 Avg. IC50) was 0.0433 µM.
With `NCCCn1nc2c(c1C(=O)O)CCc1cc(O)c(-c3cccc(Cl)c3)cc1-2` [Example 13] the IC50 (MK-3; [3]) was 121 µM and the IC50 (MAPKAPK2 (MK-2); [4]) was 10.5 µM.
`O=C1NCCCn2nc3c(c21)CCc1[nH]ncc1-3` [Example 13] was tested, and the IC50 (MK-3; [1]) was 144 µM and the IC50 (MAPKAPK2 (MK-2); [2]) was 19.6 µM.
`O=C1NCCn2nc3c(c21)CCc1cnc(-n2ccnc2)cc1-3` [Example 13] showed an IC50 (MK-3) of 5.34 µM and an IC50 (MAPKAPK2 (MK-2); read-out: MK-2 Avg. IC50) of 0.0523 µM.
`CC1Cc2c(nn(CCCN)c2C(=O)O)-c2ccc(O)cc21` (stereo not shown) [Example 14] was tested, and the IC50 (MK-3; [3]) was greater than 200 µM and the IC50 (MAPKAPK2 (MK-2); [4]) was 10.7 µM.
In the case of `O=C(O)c1c2c(nn1CCCNS(=O)(=O)Cc1ccc(Cl)cc1)-c1cc(-c3cnc4ccccc4c3)ncc1CC2` [Example 54], the IC50 (MK-3) is reported as 6.46 µM.
